Data taken from US8088808B2, “Substituted N-phenyl-bipyrrolidine carboxamides and therapeutic use thereof” (Sanofi, priority 2007, dated 2012).
Where a name gives a salt, the structure may show the parent alone. One block for each compound: values may come before it.

What was measured:
[1] = molecular target: rhesus (Macaca Mulatta) H3 receptor (Macaca mulatta, UniProt Q865E1); assay: Rhesus H3 radioligand binding assay ([3H]-Methylhistamine displacement, WGA SPA beads); parameters: species or system rhesus monkey (Macaca Mulatta); conditions: Table 2; procedure of Example 42
rhesus (Macaca Mulatta) H3 receptor, sequence (Q865E1 1-445): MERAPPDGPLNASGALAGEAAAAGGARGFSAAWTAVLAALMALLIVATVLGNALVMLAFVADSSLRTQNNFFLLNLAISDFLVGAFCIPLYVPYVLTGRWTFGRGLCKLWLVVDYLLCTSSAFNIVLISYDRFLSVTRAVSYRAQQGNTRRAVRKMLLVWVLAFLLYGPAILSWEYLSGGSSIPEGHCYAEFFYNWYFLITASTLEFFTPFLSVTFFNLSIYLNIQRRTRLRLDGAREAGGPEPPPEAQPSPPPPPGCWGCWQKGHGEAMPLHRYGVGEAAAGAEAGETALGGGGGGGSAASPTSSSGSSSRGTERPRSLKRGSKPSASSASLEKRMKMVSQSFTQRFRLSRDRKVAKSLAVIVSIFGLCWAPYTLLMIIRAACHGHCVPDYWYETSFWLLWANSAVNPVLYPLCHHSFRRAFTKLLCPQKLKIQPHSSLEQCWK
Protocol: (Genbank #AY231164). Stably transfected cultures were amplified in tissue culture flasks by standard tissue culture methods and induced to express rhesus H3 by exposure to 500 ng/ml tetracycline (Cellgro) for 24 hours. After induction, cells were dissociated from flasks utilizing Cell Stripper (Cellgro). Cells were centrifuged (1K×g, 5 min) and pellet frozen in an ethanol-dry ice bath to disrupt cell membranes. Frozen cell pellet was re-suspended in 5 mM HEPES (pH 7.4, Invitrogen) at 10 ml/1000 cm2 of harvested cells. The cell suspension was drawn through an 18 gauge needle (2-3×) followed by a 23 gauge needle (2-3×) to further disrupt cell membranes. The cell suspension was centrifuged (40K×g, 30 min). Cell membrane pellet was re-suspended in 5 mM HEPES (pH 7.4, Invitrogen) at a final protein concentration of 10 mg/ml. Rhesus H3 membranes were stored under liquid nitrogen prior to use in [3H]-Methylhistamine and GTPγS radioligand binding assays.
Rhesus H3 radioligand binding assay was performed using rhesus H3 receptor membranes (prepared as described above), [3H]-Methylhistamine (Perkin Elmer) and WGA SPA beads (wheat germ agglutinin scintillation proximity assay) beads (Amersham). The assay was performed in 96-well Opti-Plates (Packard). Each reaction contained 50 μl rhesus H3 membranes (20-30 μg total protein), 50 μl WGA SPA beads (0.1 μg) and 50 μl of 83 Ci/mmol [^3H]-Methylhistamine (final concentration 2 nM) and 50 μl of tested compound. The compounds of this invention and/or vehicle were diluted with binding buffer from 10 mM DMSO stocks. Assay plates were sealed with TopSeal (Perkin Elmer) and mixed on shaker (25° C., 1 hour). Assay plates were read on TopCount scintillation counter (Packard). Results were analyzed by Hill transformation and Ki values were determined by Cheng-Prusoff equation.

[2] = molecular target: MCH receptor (Homo sapiens, UniProt Q99705); assay: MCH receptor [125J]-ligand binding filtration assay; conditions: 10 μM test compound; percent inhibition of ligand binding
MCH receptor, sequence (Q99705 whole entry): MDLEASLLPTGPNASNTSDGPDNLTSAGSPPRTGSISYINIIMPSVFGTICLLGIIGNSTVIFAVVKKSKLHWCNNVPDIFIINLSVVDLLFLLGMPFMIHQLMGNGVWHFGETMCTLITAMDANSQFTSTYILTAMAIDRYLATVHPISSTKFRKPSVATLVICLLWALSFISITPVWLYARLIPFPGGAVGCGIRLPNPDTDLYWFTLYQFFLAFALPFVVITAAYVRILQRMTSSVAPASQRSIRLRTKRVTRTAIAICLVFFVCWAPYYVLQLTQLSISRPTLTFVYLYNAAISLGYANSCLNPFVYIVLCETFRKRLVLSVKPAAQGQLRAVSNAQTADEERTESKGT
Protocol: The activity of the compounds of this invention at the MCH receptor site, if any was measured by the procedures as set forth below. • Test Compounds The compounds of this invention were stored in a 96-well microtiter plates (1 μL, 10 mM, 100% DMSO). Each of the test sample was diluted with 249 μL of 100% DMSO (dilution 1:250). […] Blank: Assay buffer containing 0.4% DMSO were transferred to the dilution microtiter plates for blanks • Assay Procedure: The filter plates with […] of 0.5% PEI-solution/well were incubated for 2 hours at room temperature. PEI was removed by vacuum filtration just before pipetting (Univac Polyfiltronic/Whatman). The solution of the compound as prepared above (50 μL), or MCH ([…]) or Puffer/DMSO (positive control) were added to 96-well round bottom microtiter plate. Then 50 μl of [^125J]-ligand solution was added followed by 100 μl of membrane suspension. The plates were closed with the lids, and incubated for 60 min. at 25° C. The samples were transferred to GF/B filter plate. The reaction mixture was removed by vacuum filtration, washed 4× with 300 μL ice-cold washing buffer and the washing solution was removed by vacuum filtration. The rubber layer at the bottom of the plate was then removed and the filters were dried over night at room temperature. 25 μL of scintillation cocktail was added and the plates were sealed and, plate frames were added and incubated for 1 hour at room temperature. The radioactivity was then measured, settings ^125J standard, 30 sec./well.

- Ki [1]: 4.6 nM
- inhibition at 10 µM [2]: 7%
Structure (SMILES): Cc1nc(C(=O)Nc2ccc(N3CC[C@H](N4CCC[C@@H]4C)C3)cc2C)co1 [Example 28, 2-Methyl-oxazole-4-carboxylic acid [2-methyl-4-(2(S)-methyl-[1,3′(S)]bipyrrolidinyl-1′-yl)-phenyl]-amide trifluoroacetate]

- Ki [1]: 15.7 nM
- inhibition at 10 µM [2]: 11.4%
Structure (SMILES): CC1CCCN1C1CCN(c2ccc(NC(=O)C3C[C@@H]4CC[C@H]3C4)cc2)C1 (stereo partly drawn) [Example 29, (1S,4R)-Bicyclo[2.2.1]heptane-2-carboxylic acid [4-(2-methyl-[1,3′]bipyrrolidinyl-1′-yl)-phenyl]-amide trifluoroacetate]

- Ki [1]: 14.7 nM
- inhibition at 10 µM [2]: 1.2%
Structure (SMILES): CC1CCCN1C1CCN(c2ccc(NC(=O)C3CC3)c(C(F)(F)F)c2)C1 (stereo not drawn) [Example 30, Cyclopropanecarboxylic acid [4-(2-methyl-[1,3′]bipyrrolidinyl-1′-yl)-2-trifluoromethyl-phenyl]-amide trifluoroacetate]

- Ki [1]: 24.7 nM
- inhibition at 10 µM [2]: 9.7%
Structure (SMILES): Cc1cc(N2CCC(N3CCCC3C)C2)ccc1NC(=O)c1cn[nH]c1 (stereo not drawn) [Example 33, 1H-Pyrazole-4-carboxylic acid [2-methyl-4-(2-methyl-[1,3′]bipyrrolidinyl-1′-yl)-phenyl]-amide trifluoroacetate]

- Ki [1]: 307 nM
- inhibition at 10 µM [2]: 23.5%
Structure (SMILES): Cc1cc(C(=O)Nc2ccc(N3CCC(N4CCCC4C)C3)cc2C(F)(F)F)n[nH]1 (stereo not drawn) [Example 35, 5-Methyl-1H-pyrazole-3-carboxylic acid [4-(2-methyl-[1,3′]bipyrrolidinyl-1′-yl)-2-trifluoromethyl-phenyl]-amide trifluoroacetate]

- Ki [1]: 10.7 nM
- inhibition at 10 µM [2]: 3.7%
Structure (SMILES): Cc1cc(NC(=O)CC2CCCC2)ccc1N1CCC(N2CCCC2C)C1 (stereo not drawn) [Example 38, 2-Cyclopentyl-N-[3-methyl-4-(2-methyl-[1,3′]bipyrrolidinyl-1′-yl)-phenyl]-acetamide trifluoroacetate]

More lines, now with the values behind:

Structure (SMILES): Cc1noc(C)c1C(=O)Nc1ccc(N2CCC(N3CCCC3C)C2)cc1 (stereo not drawn) [Example 26, 3,5-Dimethyl-isoxazole-4-carboxylic acid [4-(2-methyl-[1,3′]bipyrrolidinyl-1′-yl)-phenyl]-amide trifluoroacetate]
- Ki [1]: 2.1 nM
- inhibition at 10 µM [2]: 9.4%

Structure (SMILES): Cc1cc(NC(=O)C2C(C)(C)C2(C)C)ccc1N1CCC(N2CCCC2C)C1 (stereo not drawn) [Example 27, 2,2,3,3-Tetramethyl-cyclopropanecarboxylic acid [3-methyl-4-(2-methyl-[1,3′]bipyrrolidinyl-1′-yl)-phenyl]-amide trifluoroacetate]
- Ki [1]: 65.5 nM
- inhibition at 10 µM [2]: 36%

Structure (SMILES): Cc1cc(C(=O)Nc2ccc(N3CCC(N4CCCC4C)C3)cc2)n[nH]1 (stereo not drawn) [Example 31, 5-Methyl-1H-pyrazole-3-carboxylic acid [4-(2-methyl-[1,3′]bipyrrolidinyl-1′-yl)-phenyl]-amide trifluoroacetate]
- Ki [1]: 44.5 nM
- inhibition at 10 µM [2]: 30.5%

Structure (SMILES): Cc1cc(N2CCC(N3CCCC3C)C2)ccc1NC(=O)c1ccc(-n2ccccc2=O)o1 (stereo not drawn) [Example 32, 5-(2-Oxo-2H-pyridin-1-yl)-furan-2-carboxylic acid [2-methyl-4-(2-methyl-[1,3]bipyrrolidinyl-1′-yl)-phenyl]-amide]
- Ki [1]: 33.3 nM
- inhibition at 10 µM [2]: 10.9%

Structure (SMILES): Cc1cc(NC(=O)c2cn[nH]c2)ccc1N1CCC(N2CCCC2C)C1 (stereo not drawn) [Example 34, 1H-Pyrazole-4-carboxylic acid [3-methyl-4-(2-methyl-[1,3′]bipyrrolidinyl-1′-yl)-phenyl]-amide trifluoroacetate]
- Ki [1]: 126 nM
- inhibition at 10 µM [2]: 16.8%

Structure (SMILES): Cc1cc(N2CCC(N3CCCC3C)C2)ccc1NC(=O)c1cc(-c2ccncc2)n[nH]1 (stereo not drawn) [Example 37, 5-Pyridin-4-yl-2H-pyrazole-3-carboxylic acid [2-methyl-4-(2-methyl-[1,3′]bipyrrolidinyl-1′-yl)-phenyl]-amide trifluoroacetate]
- Ki [1]: 14.2 nM
- inhibition at 10 µM [2]: 34.4%
